Source: the kinase profiling compilation of Christmann-Franck et al. (2016)

Legend:
Assay in all cases: KINOMEscan competition binding
Conditions in all cases: compound 10.0 µM
BMPR1B (human) = BMPR1B (human) (UniProt O00238)
[1] = system: BRAF (human), P15056 [V600E]
BRSK2 (human) = BRSK2 (human) (UniProt Q8IWQ3)
CAMK2G (human) = CAMK2G (human) (UniProt Q13555)
CDC2L2 (human) = CDC2L2 (human) (UniProt Q9UQ88)
CDK16 (human) = CDK16 (human) (UniProt Q00536)
CDK7 (human) = CDK7 (human) (UniProt P50613)
CSNK1A1 (human) = CSNK1A1 (human) (UniProt P48729)
DAPK1 (human) = DAPK1 (human) (UniProt P53355)
DCLK3 (human) = DCLK3 (human) (UniProt Q9C098)
EPHA3 (human) = EPHA3 (human) (UniProt P29320)
EPHB6 (human) = EPHB6 (human) (UniProt O15197)
FGFR3 (human) = FGFR3 (human) (UniProt P22607)
[2] = system: FLT3 (human), P36888 [D835H]
HIPK1 (human) = HIPK1 (human) (UniProt Q86Z02)
INSR (human) = INSR (human) (UniProt P06213)
[3] = molecular target: JAK3 JH1 catalytic (human) (UniProt P52333)
[4] = system: KIT (human), P10721 [A829P]
MAP2K2 (human) = MAP2K2 (human) (UniProt P36507)
MAP3K11 (human) = MAP3K11 (human) (UniProt Q16584)
MAP3K7 (human) = MAP3K7 (human) (UniProt O43318)
MAP3K9 (human) = MAP3K9 (human) (UniProt P80192)
MAST1 (human) = MAST1 (human) (UniProt Q9Y2H9)
MYLK3 (human) = MYLK3 (human) (UniProt Q32MK0)
NIM1 (human) = NIM1 (human) (UniProt Q8IY84)
NTRK3 (human) = NTRK3 (human) (UniProt Q16288)
PAK7 (human) = PAK7 (human) (UniProt Q9P286)
PIM2 (human) = PIM2 (human) (UniProt Q9P1W9)
PLK3 (human) = PLK3 (human) (UniProt Q9H4B4)
PRKAA1 (human) = PRKAA1 (human) (UniProt Q13131)
PRKCE (human) = PRKCE (human) (UniProt Q02156)
PRKCH (human) = PRKCH (human) (UniProt P24723)
PRKCQ (human) = PRKCQ (human) (UniProt Q04759)
PTK6 (human) = PTK6 (human) (UniProt Q13882)
ROS1 (human) = ROS1 (human) (UniProt P08922)
RPS6KA6 KD1 (human) = RPS6KA6 KD1 (human) (UniProt Q9UK32)
SRPK1 (human) = SRPK1 (human) (UniProt Q96SB4)
TLK2 (human) = TLK2 (human) (UniProt Q86UE8)
WEE2 (human) = WEE2 (human) (UniProt P0C1S8)
ZAP70 (human) = ZAP70 (human) (UniProt P43403)
MET (human) = MET (human) (UniProt P08581)

Sequence of CDC2L2 (human) (Q9UQ88 whole entry, looked up): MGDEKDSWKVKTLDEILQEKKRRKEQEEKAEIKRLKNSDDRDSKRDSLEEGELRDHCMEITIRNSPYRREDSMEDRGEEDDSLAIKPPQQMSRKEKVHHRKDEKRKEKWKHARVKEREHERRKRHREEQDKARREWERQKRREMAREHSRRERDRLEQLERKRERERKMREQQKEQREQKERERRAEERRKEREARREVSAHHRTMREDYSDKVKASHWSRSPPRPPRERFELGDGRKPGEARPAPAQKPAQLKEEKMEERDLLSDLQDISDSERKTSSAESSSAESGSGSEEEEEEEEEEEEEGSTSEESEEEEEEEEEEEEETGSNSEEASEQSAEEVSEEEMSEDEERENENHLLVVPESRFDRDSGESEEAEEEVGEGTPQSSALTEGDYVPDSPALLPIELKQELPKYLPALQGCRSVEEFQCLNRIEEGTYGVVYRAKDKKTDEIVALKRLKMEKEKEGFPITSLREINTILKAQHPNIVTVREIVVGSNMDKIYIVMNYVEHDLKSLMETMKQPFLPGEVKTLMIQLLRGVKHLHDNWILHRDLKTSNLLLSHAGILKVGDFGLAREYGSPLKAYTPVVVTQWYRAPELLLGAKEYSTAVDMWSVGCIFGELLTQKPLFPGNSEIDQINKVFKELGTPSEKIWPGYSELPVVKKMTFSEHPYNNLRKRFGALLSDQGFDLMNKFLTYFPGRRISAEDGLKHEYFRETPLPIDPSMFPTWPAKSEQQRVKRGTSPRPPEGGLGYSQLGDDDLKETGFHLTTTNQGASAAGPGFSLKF
Sequence of BMPR1B (human) (O00238 whole entry, looked up): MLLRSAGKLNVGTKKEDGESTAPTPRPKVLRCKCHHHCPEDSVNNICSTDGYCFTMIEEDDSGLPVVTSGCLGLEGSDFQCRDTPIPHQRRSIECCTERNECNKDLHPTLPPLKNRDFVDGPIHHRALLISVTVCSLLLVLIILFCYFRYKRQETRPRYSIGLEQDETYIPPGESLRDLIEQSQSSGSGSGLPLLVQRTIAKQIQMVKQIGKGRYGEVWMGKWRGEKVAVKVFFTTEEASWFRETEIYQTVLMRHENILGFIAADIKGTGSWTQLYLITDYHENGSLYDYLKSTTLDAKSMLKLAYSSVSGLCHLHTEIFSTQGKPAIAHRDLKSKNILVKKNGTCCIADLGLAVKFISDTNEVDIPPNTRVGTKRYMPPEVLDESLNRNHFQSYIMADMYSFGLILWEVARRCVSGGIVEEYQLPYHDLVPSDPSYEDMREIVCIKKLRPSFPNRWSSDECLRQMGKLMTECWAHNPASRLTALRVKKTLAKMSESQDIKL
Sequence of ROS1 (human) (P08922 whole entry, looked up): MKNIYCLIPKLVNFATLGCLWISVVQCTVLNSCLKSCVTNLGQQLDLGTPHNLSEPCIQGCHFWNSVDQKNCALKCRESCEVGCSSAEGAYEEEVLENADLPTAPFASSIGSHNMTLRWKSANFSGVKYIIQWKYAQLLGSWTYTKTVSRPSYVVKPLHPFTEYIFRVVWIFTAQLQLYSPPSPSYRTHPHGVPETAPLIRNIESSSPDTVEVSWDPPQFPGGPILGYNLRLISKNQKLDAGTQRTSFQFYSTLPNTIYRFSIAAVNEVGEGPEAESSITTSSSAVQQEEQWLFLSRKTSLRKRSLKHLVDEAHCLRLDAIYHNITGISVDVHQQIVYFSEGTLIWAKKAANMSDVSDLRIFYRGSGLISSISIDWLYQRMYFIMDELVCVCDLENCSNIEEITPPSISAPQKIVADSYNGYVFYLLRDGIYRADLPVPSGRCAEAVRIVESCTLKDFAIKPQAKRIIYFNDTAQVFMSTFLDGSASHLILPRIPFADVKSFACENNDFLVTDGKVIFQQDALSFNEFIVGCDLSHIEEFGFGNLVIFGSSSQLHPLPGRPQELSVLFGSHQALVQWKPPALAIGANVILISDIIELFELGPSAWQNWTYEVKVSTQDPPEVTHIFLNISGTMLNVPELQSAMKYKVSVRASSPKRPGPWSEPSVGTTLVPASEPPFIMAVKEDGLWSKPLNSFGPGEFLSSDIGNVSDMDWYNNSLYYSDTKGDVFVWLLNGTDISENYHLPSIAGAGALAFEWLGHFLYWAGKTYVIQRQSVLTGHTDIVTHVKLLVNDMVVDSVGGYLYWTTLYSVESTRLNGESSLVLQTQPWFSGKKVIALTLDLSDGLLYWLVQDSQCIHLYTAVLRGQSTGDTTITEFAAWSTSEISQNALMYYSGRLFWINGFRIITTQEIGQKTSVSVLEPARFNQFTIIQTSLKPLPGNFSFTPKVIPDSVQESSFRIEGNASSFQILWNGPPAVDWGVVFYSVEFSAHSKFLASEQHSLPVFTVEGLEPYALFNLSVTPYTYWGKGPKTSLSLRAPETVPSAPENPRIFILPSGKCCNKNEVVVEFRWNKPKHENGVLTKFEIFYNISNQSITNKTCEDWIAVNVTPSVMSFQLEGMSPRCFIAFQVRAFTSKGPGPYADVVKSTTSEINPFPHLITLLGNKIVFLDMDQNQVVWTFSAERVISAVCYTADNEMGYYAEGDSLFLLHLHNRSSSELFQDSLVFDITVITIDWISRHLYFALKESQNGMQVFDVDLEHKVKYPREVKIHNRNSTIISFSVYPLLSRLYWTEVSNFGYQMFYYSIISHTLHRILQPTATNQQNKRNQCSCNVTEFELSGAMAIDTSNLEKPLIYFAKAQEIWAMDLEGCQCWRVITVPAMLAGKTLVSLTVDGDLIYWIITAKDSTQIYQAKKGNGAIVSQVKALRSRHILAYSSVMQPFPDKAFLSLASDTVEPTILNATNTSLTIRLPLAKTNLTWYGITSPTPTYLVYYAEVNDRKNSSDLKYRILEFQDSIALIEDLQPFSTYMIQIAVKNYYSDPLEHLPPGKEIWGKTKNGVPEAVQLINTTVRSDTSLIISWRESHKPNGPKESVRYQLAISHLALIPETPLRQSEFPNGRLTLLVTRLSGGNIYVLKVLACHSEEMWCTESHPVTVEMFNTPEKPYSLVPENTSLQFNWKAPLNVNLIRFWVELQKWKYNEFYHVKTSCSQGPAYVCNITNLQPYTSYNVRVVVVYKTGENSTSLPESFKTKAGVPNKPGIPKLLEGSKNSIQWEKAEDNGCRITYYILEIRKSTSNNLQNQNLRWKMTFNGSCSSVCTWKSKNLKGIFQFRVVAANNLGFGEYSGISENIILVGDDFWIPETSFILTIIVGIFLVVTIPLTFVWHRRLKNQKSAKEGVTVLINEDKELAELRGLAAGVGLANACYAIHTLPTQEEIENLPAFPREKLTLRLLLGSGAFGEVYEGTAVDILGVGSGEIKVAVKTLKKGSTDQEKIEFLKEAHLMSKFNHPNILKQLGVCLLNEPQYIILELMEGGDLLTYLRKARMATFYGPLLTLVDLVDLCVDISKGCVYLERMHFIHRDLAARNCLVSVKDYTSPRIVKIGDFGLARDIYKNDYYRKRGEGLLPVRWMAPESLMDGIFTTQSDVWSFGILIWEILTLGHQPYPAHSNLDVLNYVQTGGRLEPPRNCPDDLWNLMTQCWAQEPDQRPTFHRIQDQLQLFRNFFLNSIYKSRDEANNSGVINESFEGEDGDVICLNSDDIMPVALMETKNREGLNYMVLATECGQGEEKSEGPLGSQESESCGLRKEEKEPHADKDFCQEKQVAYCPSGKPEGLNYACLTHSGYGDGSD
Sequence of PLK3 (human) (Q9H4B4 whole entry, looked up): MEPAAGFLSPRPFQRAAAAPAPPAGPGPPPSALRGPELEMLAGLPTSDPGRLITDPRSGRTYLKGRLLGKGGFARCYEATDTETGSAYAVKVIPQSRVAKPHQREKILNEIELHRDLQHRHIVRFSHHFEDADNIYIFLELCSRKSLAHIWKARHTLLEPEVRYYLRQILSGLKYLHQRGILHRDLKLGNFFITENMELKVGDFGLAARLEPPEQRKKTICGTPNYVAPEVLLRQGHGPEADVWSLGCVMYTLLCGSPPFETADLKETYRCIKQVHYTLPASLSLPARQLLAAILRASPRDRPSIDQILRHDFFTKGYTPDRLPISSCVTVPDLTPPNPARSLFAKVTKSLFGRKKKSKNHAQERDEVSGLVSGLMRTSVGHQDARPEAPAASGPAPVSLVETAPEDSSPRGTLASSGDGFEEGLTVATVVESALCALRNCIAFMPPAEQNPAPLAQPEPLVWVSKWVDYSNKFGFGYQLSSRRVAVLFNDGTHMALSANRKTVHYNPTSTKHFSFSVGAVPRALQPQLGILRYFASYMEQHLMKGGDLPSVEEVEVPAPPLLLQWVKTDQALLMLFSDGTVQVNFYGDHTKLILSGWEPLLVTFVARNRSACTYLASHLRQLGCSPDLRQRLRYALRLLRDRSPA
Sequence of TLK2 (human) (Q86UE8 whole entry, looked up): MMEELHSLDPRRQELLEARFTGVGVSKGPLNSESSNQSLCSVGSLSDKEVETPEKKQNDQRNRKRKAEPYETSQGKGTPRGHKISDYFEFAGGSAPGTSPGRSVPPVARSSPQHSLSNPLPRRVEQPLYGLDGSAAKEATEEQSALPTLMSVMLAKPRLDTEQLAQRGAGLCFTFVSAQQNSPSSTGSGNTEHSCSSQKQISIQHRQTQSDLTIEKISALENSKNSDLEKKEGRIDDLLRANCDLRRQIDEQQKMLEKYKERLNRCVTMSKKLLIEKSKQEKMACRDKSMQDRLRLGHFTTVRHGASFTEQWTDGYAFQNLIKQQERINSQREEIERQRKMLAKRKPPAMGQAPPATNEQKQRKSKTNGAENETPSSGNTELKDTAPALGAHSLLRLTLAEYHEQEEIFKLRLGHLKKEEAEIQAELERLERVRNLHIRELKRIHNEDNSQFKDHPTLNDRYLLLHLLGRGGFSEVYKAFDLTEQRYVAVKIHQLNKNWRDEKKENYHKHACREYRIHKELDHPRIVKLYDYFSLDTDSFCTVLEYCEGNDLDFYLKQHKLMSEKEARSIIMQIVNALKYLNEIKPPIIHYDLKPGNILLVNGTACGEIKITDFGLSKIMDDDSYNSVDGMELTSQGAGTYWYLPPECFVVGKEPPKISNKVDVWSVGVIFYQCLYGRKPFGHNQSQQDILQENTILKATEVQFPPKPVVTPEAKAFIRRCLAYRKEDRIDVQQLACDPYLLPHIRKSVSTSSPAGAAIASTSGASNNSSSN

| SMILES | kinase still bound, per cent of control (BMPR1B (human)) [%] | kinase still bound, per cent of control (BRSK2 (human)) [%] | kinase still bound, per cent of control (CAMK2G (human)) [%] | per cent of control (CDC2L2 (human)) [%] | per cent of control (CDK16 (human)) [%] | per cent of control (CDK7 (human)) [%] | kinase still bound, per cent of control (DAPK1 (human)) [%] | kinase still bound, per cent of control (DCLK3 (human)) [%] | kinase still bound, per cent of control (EPHA3 (human)) [%] | kinase still bound, per cent of control (EPHB6 (human)) [%] | kinase still bound, per cent of control (FGFR3 (human)) [%] | kinase still bound, per cent of control [2] [%] | kinase still bound, per cent of control (HIPK1 (human)) [%] | kinase still bound, per cent of control (INSR (human)) [%] | kinase still bound, per cent of control [3] [%] | kinase still bound, per cent of control (MAP2K2 (human)) [%] | kinase still bound, per cent of control (MAP3K11 (human)) [%] | kinase still bound, per cent of control (MAP3K7 (human)) [%] | kinase still bound, per cent of control (MAP3K9 (human)) [%] | kinase still bound, per cent of control (MAST1 (human)) [%] | other results |
| --- | --- | --- | --- | --- | --- | --- | --- | --- | --- | --- | --- | --- | --- | --- | --- | --- | --- | --- | --- | --- | --- |
| COC(=O)Nc1ccc(-c2nc(N3CCOCC3)c3cnn(C4CCN(C(=O)OC)CC4)c3n2)cc1 | 78 | 100 | 93 | 100 | 100 | 67 | 100 | 92 | 84 | 97 | 99 | 91 | 57 | 72 | 100 | 100 | 97 | 70 | 100 | 81 | kinase still bound, per cent of control [1]: 81%; kinase still bound, per cent of control (CSNK1A1 (human)): 100%; kinase still bound, per cent of control [4]: 91%; kinase still bound, per cent of control (MYLK3 (human)): 100%; kinase still bound, per cent of control (NIM1 (human)): 100%; kinase still bound, per cent of control (NTRK3 (human)): 100%; kinase still bound, per cent of control (PAK7 (human)): 80%; kinase still bound, per cent of control (PIM2 (human)): 100%; kinase still bound, per cent of control (PLK3 (human)): 93%; kinase still bound, per cent of control (PRKAA1 (human)): 100%; kinase still bound, per cent of control (PRKCE (human)): 94%; kinase still bound, per cent of control (PRKCH (human)): 92%; kinase still bound, per cent of control (PRKCQ (human)): 99%; kinase still bound, per cent of control (PTK6 (human)): 88%; kinase still bound, per cent of control (ROS1 (human)): 76%; kinase still bound, per cent of control (RPS6KA6 KD1 (human)): 86%; kinase still bound, per cent of control (SRPK1 (human)): 100%; kinase still bound, per cent of control (TLK2 (human)): 96%; kinase still bound, per cent of control (WEE2 (human)): 95%; kinase still bound, per cent of control (ZAP70 (human)): 98% |
| CC(C)n1nc(-c2cc3cc(O)ccc3[nH]2)c2c(N)ncnc21 | 0.1 | 0.95 | 56 | 100 | 98 | 30 | 3 | 10 | 1.5 | 5.3 | 9.2 | 7.4 | 1.9 | 100 | 0 | 0.4 | 79 | 22 | 32 | 87 | kinase still bound, per cent of control [1]: 4.4%; kinase still bound, per cent of control (CSNK1A1 (human)): 3.6%; kinase still bound, per cent of control [4]: 10%; kinase still bound, per cent of control (MET (human)): 73%; kinase still bound, per cent of control (NIM1 (human)): 88%; kinase still bound, per cent of control (NTRK3 (human)): 49%; kinase still bound, per cent of control (PAK7 (human)): 8.6%; kinase still bound, per cent of control (PIM2 (human)): 0.6%; kinase still bound, per cent of control (PLK3 (human)): 33%; kinase still bound, per cent of control (PRKAA1 (human)): 43%; kinase still bound, per cent of control (PRKCE (human)): 0%; kinase still bound, per cent of control (PRKCH (human)): 10%; kinase still bound, per cent of control (PRKCQ (human)): 58%; kinase still bound, per cent of control (PTK6 (human)): 32%; kinase still bound, per cent of control (ROS1 (human)): 100%; kinase still bound, per cent of control (RPS6KA6 KD1 (human)): 4.6%; kinase still bound, per cent of control (SRPK1 (human)): 100%; kinase still bound, per cent of control (TLK2 (human)): 79%; kinase still bound, per cent of control (WEE2 (human)): 100%; kinase still bound, per cent of control (ZAP70 (human)): 99% |
| CCC(=O)N1CCN(c2ccc(-n3c(=O)ccc4cnc5ccc(-c6cnc7ccccc7c6)cc5c43)cc2C(F)(F)F)CC1 | 100 | 76 | 79 | 100 | 91 | 57 | 96 | 97 | 70 | 80 | 42 | 18 | 63 | 7.6 | 100 | 100 | 69 | 47 | 84 | 93 | kinase still bound, per cent of control (MET (human)): 84%; kinase still bound, per cent of control (MYLK3 (human)): 94%; kinase still bound, per cent of control (NIM1 (human)): 84%; kinase still bound, per cent of control (NTRK3 (human)): 100%; kinase still bound, per cent of control (PAK7 (human)): 87%; kinase still bound, per cent of control (PIM2 (human)): 62%; kinase still bound, per cent of control (PLK3 (human)): 87%; kinase still bound, per cent of control (PRKAA1 (human)): 91%; kinase still bound, per cent of control (PRKCE (human)): 86%; kinase still bound, per cent of control (PRKCH (human)): 92%; kinase still bound, per cent of control (PRKCQ (human)): 91%; kinase still bound, per cent of control (PTK6 (human)): 51%; kinase still bound, per cent of control (ROS1 (human)): 71%; kinase still bound, per cent of control (RPS6KA6 KD1 (human)): 66%; kinase still bound, per cent of control (SRPK1 (human)): 100%; kinase still bound, per cent of control (TLK2 (human)): 100%; kinase still bound, per cent of control (WEE2 (human)): 100%; kinase still bound, per cent of control (ZAP70 (human)): 100% |
